Results taken from BindingDB's records for doi:10.1016/j.bmcl.2006.09.059 (Seoul National University, 2006).

Target: Transient receptor potential cation channel subfamily V member 1 (Rattus norvegicus, UniProt O35433)
Experiment: Agonist activity at rat TRPV1 expressed in CHO cells assessed as maximal calcium uptake

Sequence of Transient receptor potential cation channel subfamily V member 1 (O35433 whole entry): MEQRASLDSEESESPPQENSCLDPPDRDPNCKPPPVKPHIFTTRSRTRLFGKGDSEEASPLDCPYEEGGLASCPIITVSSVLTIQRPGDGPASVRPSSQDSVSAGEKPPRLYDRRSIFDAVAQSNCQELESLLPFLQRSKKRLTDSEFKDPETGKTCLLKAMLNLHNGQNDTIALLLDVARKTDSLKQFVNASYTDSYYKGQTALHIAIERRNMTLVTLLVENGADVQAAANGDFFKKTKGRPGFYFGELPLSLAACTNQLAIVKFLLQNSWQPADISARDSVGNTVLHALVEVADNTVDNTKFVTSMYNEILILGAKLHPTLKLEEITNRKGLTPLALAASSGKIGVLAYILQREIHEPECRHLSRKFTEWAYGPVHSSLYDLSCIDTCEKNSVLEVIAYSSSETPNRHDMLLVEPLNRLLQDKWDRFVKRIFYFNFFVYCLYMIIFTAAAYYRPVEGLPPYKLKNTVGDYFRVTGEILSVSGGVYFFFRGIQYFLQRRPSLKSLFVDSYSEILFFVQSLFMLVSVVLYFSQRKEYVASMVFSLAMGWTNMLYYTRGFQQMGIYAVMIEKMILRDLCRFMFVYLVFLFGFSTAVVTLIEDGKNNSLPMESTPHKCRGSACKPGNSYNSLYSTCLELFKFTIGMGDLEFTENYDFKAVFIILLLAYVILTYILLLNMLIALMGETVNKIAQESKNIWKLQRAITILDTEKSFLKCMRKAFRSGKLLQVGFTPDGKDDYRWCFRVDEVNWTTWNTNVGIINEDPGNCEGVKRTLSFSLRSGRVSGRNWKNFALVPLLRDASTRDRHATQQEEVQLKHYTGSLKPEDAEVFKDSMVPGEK

In the case of COc1cc(CNC(=S)NC(COC(=O)C(C)(C)C)Cc2ccc(C(C)(C)C)cc2)ccc1O (stereo unspecified) [2-(3-(4-hydroxy-3-methoxybenzyl)thioureido)-3-(4-tert-butylphenyl)propyl pivalate], the EC50 is reported as 5.7 nM.
